Reference: patent US11865098B1, “Methods and compositions for treating excessive sleepiness” (Axsome Malta Ltd., priority 2017, dated 2024)

What was measured:
Assay type in all cases: in vivo, human
[1] = test system: adults with OSA and excessive sleepiness; assay: Safety and tolerability (TEAEs), phase 3 randomized withdrawal study in OSA
Method: The study was a double-blind, placebo-controlled, enriched, randomized withdrawal design (FIG. 1). In the Titration Phase (weeks 1-2), patients started on a once-daily dose of APC 75 mg and could be titrated up or down every 3 days to reach a maximum tolerated dose of APC 75, 150, or 300 mg. In the Stable-Dose Phase (weeks 3-4), patients continued to receive the dose that they were titrated to in the Titration Phase for 2 weeks. In the Double-Blind Withdrawal Phase (weeks 5-6), patients who reported “much” or “very much” improvement on the Patient Global Impression of Change (PGI-C) scale (Guy W. ECDEU assessment manual for psychopharmacology, revised. US Department of Health, Education, and Welfare publication (ADM 76-338). Rockville, MD: National Institute of Mental Health; 1976), and who had improved on the Maintenance of Wakefulness Test (MWT) and Epworth Sleepiness Scale (ESS) (Johns, Sleep 14(6):540 (1991)) at week 4 were randomized 1:1 to receive the same current dose of JZP-110 or placebo for 2 weeks.
MWT and ESS data were analyzed using a mixed-effect model repeated measures (MMRM); PGI-C and CGI-C were evaluated using a chi-square test. […] Safety and tolerability were evaluated based on treatment-emergent adverse events (TEAEs), vital signs, and laboratory values.

[2] = test system: adult patients with OSA and ES; assay: ESS, 12-week placebo-controlled parallel study in OSA; settings: 37.5, 75, 150, 300 mg; week 12
Method: The ESS is a subjective sleepiness test that is well known in the art and routinely used to measure the sleepiness level of a subject. The scale is intended to measure daytime sleepiness through the use of a short questionnaire that asks the subject to rate his or her probability of falling asleep on a scale of increasing probability from 0 to 3 for eight different situations that most people engage in during their daily lives. The scores for the eight questions are added together to obtain a single number that estimates the subject's average sleep propensity (ASP). […]
The study was a 12-week, double-blind, placebo-controlled, parallel design study as described in greater detail in Example 1 (Schweitzer et al., Sleep 40(Abstract Supplement):A237. Abstract 0641 (2017)). […] The Functional Outcomes of Sleep questionnaire short version (FOSQ-10) (Chasens et al., Sleep 32(7):915 (2009)) evaluated the effects of ES on functioning. The Work Productivity and Activity Impairment questionnaire for Specific Health Problems (WPAI:SHP) (Reilly et al., Pharmacoeconomics 4(5):353 (1993); Reilly, Work Productivity and Activity Impairment Questionnaire: Specific Health Problem V2.0 (WPAI: SHP). www.reillyassociates.net/WPAI_SHP) evaluated work productivity impairment among employed patients and overall activity impairment outside of work among all patients for the past 7 days. […]

[3] = test system: adult patients with OSA and ES; assay: EQ-5D-5L, 12-week parallel study in OSA; settings: week 12
Method: This was a 12-week, double-blind, placebo-controlled, parallel-design study. Patients were randomized (1:1:2:2:2) to APC 37.5 mg, 75 mg, 150 mg, or 300 mg, or placebo for 12 weeks, and were stratified by adherence or nonadherence with primary OSA therapy.
The SF-36 v2 consists of 2 summary scales (Physical Component Summary and Mental Component Summary) and 8 specific health status domains (Physical Function, Role Physical, Bodily Pain, General Health, Vitality, Social Functioning, Role Emotional, Mental Health) (Ware Jr et al., User's Manual for the SF-36v2™ Health Survey (2nd ed). QualityMetric Incorporated (Lincoln, RI); 2007). […]
Efficacy analyses were based on the modified intent-to-treat (mITT) population; there was no multiplicity adjustment for the SF-36 v2 or EQ-5D-5L. SF-36 v2 scores were scaled from 0 to 100 (higher scores on all scales represent better health), transformed to norm-based scores using US general-population data from SF-36 Manuals (Ware Jr et al., User's Manual for the SF-36v2™ Health Survey (2nd ed.). QualityMetric Incorporated (Lincoln, RI); 2007), and were analyzed using a mixed-effect model with repeated measures (MMRM); and baseline value of the efficacy endpoint was used to determine differences in changes from baseline. EQ-5D-5L VAS and index-score data were analyzed using an MMRM model. […]

[4] = Randomized Withdrawal Phase, all JZP-110 doses (n = 62)
[5] = Stable-Dose Phase, all JZP-110 doses (n = 157)

SMILES: NC(=O)OC[C@H](N)Cc1ccccc1 [JZP-110, (R)-2-amino-3-phenylpropyl carbamate]
- Any TEAE, incidence [1, 4]: ρ 18 (29.0) n (%)
- Aphthous stomatitis, incidence [1, 4]: ρ 1 (1.6) n (%)
- Cough, incidence [1, 4]: ρ 1 (1.6) n (%)
- Nasopharyngitis, incidence [1, 4]: ρ 3 (4.8) n (%)
- Serious TEAEs, incidence [1, 4]: ρ 0 n (%)
- TEAEs leading to withdrawal, incidence [1, 4]: ρ 0 n (%)
- Upper respiratory tract infection, incidence [1, 4]: ρ 1 (1.6) n (%)
- Diarrhea, incidence [1, 5]: ρ 0 n
- Dyspepsia, incidence [1, 5]: ρ 0 n
- Serious TEAE, incidence [1, 5]: ρ 0 n
- TEAE leading to withdrawal, incidence [1, 5]: ρ 0 n
- Any TEAE, incidence ([1]; Stable-Dose Phase, all JZP-110 doses (n = 157), listed as APC): 10.2%
- Serious TEAE, incidence ([1]; Titration Phase, all JZP-110 doses (n = 174)): ρ 0 n
- Any TEAE, incidence ([1]; Titration Phase, all JZP-110 doses (n = 174), listed as APC): 48.9%
- Rebound hypersomnia or withdrawal effects after abrupt discontinuation ([1]; placebo group in the Randomized Withdrawal Phase): no evidence of rebound hypersomnia or withdrawal effects
- Serious TEAEs in the study ([1]; whole study): no serious TEAEs
- Co-primary ESS endpoint [2]: met at all doses
- EQ-5D-5L index value, effect [3]: no significant effects
- EQ-5D VAS, effect vs placebo ([3]; appeared dose dependent): not significantly different from placebo
